Measured values from patent publication US6428971B1, “Teichoic acid enzymes and assays” (priority 1996, dated 2002).

B1: TAP: recombinant B. subtilis rodC (tagF) gene product overexpressed in E. coli DH10B/pBSRODC1, SEQ ID NO 2 with alanine to valine change (protein)
chain: MSLVVDTNKRKQKGKSFYTEEQKKVMIENTVIKCILKSLKNNLGSLELLISIDSEHQFLEDYQLFLKLKERRSGTESEFPLQNTGSLEYKTEINAHVLPMPVEMGQTYDFYVEFRKKYEDAEQEPLLKRLSAEVNSIERAFHVDQTTELLILPYTTDKGNFSIKVKREAKIIRFDQIEISSEEISITGYAGYLSSENQYRIKNLNLILKKGGETPIEEKFPIKLERKTHGLENMRADGFVPELYDFEVKVPLKEIPFSNEKRYVYRLFMEYICNDDEGTDIQFNSTALVLGDRKNKLKGLVSIIKTNNAPVRYEVFKKKKKQTLGIRVNDYSLKTRMKYFIKGKKKRLVSKIKKITKMRNKLITKTYKSLFMMASRMPVKRKTVIFESFNGKQYSCNPRAIYEYMRENHPEYKMYWSVNKQYSAPFDEKGIPYINRLSLKWLFAMARAEYWVVNSRLPLWIPKPSHTTYLQTWHGTPLKRLAMDMEEVHMPGTNTKKYKRNFIKEASNWDYLISPNGYSTEIFTRAFQFNKTMIESGYPRNDFLHNDNNEETISLIKSRLNIPRDKKVILYAPTWRDDQFYAKGRYKFDLDLDLHQLRQELGNEYIVILRMHYLVAENFDLGPFEGFAYDFSAYEDIRELYMVSDLLITDYSSVFFDFANLKRPMLFFVPDIETYRDKLRGFYFDFEKEAPGPLVKTTEETIEAIKQISSPDYKLPVSFGPFYDKFCYLESGRSSEKVVNTVFKAE

Key:
TAP [1] = molecular target: T1, TAP (Bacillus subtilis, UniProt P13485, A616V); assay: TAP enzyme assay (acid precipitation of radioactive lipoteichoic acid); format: biochemical, B. subtilis; settings: alanine ester removed in 0.1M Tris-HCl pH 8.0, 24 hr, 37° C.
T1 construct: corresponds to a 2163 bp open reading frame beginning with ATG at bp 100 and ending with TAA at bp 2263; made in house; host or cells: E. coli DH10B / pBSRODC1 (pTrc99A vector); membrane preparation, 2M NaCl extract, High Q fraction
Protocol: (§1) The enzymatic activity of TAP was assayed using CDP[^3H]glycerol as the glycerolphosphate donor and B. subtilis lipoteichoic acid as the acceptor. If active, the recombinant TAP enzyme should lengthen lipoteichoic acid with radioactive glycerolphosphate monomers, producing acid precipitable radioactivity. […] Extraction of TAP from the E. coli membrane with 2 M NaCl produced an active TAP preparation that could be separated from the cell membrane by ultracentrifugation.
(§2) The method of Burger and Glaser was generally followed. Burger M M, Glaser L. “The synthesis of teichoic acids” J. Biol. Chem. (1964) vol. 239, pp. 3168-3177, incorporated by reference. A typical assay contained 1-100 μl of enzyme, 10 μl of lipoteichoic acid (1 mg/ml B. subtilis lipoteichoic acid [Sigma] in water), 25 μl of CDP[^3H]glycerol (10 mM CDPglycerol Specific Activity 8.8 μCi/μMole), and enough Buffer A to bring the total volume to 250 μl. The reaction was incubated at 37° C. for one hour, mixed with 80 μl of 3N perchloric acid, and placed on ice for 5 min. The acid treated sample was spotted on a GF/C filter and washed with 4×5 ml of 0.15 N perchloric acid before liquid scintillation counting. Control reactions lacking either lipoteichoic acid or CDP[^3H]glycerol were included as negative controls.
(§3) The method of Burger and Glaser was generally followed. […]

TAP [2] = molecular target: T2, TAP (Bacillus subtilis, UniProt P13485); assay: as above; format: biochemical, B. subtilis; settings: lipoteichoic acid from either B. subtilis, S. aureus, or E. faecalis
T2 construct: corresponds to a 2163 bp open reading frame beginning with ATG at bp 100 and ending with TAA at bp 2263; made in house; host or cells: E. coli DH10B / pBSRODC1 (pTrc99A vector); membrane preparation, 2M NaCl extract, High Q fraction
Protocol: as §1, §2, §3

[3] = Storage stability of the TAP enzyme; format: physicochemical; settings: stored in ice

T1 sequence (P13485 26-746 A616V): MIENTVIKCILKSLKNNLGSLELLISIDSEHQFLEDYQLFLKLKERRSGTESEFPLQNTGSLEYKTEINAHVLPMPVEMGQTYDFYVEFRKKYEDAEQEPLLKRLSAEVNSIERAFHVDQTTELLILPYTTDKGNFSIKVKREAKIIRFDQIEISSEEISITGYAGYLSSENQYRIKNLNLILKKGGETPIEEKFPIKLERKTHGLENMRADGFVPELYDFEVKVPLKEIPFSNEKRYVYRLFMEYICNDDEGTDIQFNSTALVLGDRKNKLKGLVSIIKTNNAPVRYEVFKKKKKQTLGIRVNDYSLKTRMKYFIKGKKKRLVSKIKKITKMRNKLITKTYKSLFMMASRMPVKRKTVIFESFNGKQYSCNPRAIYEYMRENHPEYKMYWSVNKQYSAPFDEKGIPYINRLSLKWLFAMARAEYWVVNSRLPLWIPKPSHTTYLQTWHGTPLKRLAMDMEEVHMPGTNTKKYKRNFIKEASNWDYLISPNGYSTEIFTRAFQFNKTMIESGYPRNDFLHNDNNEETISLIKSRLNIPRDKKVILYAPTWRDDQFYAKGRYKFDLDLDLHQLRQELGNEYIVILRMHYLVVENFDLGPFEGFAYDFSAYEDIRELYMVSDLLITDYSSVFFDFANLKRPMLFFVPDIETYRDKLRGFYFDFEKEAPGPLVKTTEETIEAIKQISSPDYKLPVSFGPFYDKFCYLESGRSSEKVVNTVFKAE
T2 sequence (P13485 26-746 A616V): as above

Row | Molecule | effect of alanine removal from lipoteichoic acid on activity of the recombinant TAP enzyme (TAP [1]) | acceptor of CDP[3H]glycerol (substrate for TAP) (TAP [2]) | stability of the enzyme on storage [3]
1 | lipoteichoic acid | improved activity | could serve as an acceptor | 
2 | B1 |  |  | stable for two weeks
